# Reference: patent US20100286247A1, “Methods of Protection from Oxidative Stress” (Trustees of Boston University, priority 2005, published 2010)
# “Also recorded” adds a separate entry of the source. {P} = phosphate
# Columns and labels:
# [1] = system: human newborn fibroblasts; assay: Propidium iodide (PI) staining of nonviable cells; type: cell-based; conditions: doses 25-250% of standard dose (40 μM TO, 100 μM pTT); positive control 1 mM H2O2
# Method: Propidium iodide (PI, Sigma) was used to stain nonviable cells for some experiments. PI stock solution (1 mg,/ml) was added to samples immediately after harvesting to achieve a final concentration of 2 μg/ml.
# To better characterize the dose effects of different pTT and 11-base T-oligo doses, a dose response study was conducted. For each T-oligo the doses were 25-250% of the standard dose used (40 μM for TO and 100 μM for pTT). […] Panel C is a compilation of the maximum DCF peak shifts measured with each treatment: diluent, 250 μM pTT, 100 μM TO and 1 mM as the positive control. […] There is a significant difference in DCF fluorescence stimulated by the two treatments when the same doses were used (25, 40 and 100 μM) (2-way ANOVA, p=0.0038).
# human dermal fibroblasts = assay: Senescence-associated β-galactosidase (SA-β-gal) assay; type: cell-based; conditions: for SA-β-gal positive cells, result in words: up to 72 hours of treatment
# Excerpt: Subconfluent senescent fibroblasts were found by Dimri et al. to stain blue in an assay that measures β-galactosidase activity at pH 6.0.^240 As per their protocol, cells were fixed with a 2% formaldehyde and 0.2% glutaraldehyde solution, washed, and stained overnight in X-gal solution. The next day, 3-4 photographs were taken of representative fields in each plate under a 10× microscope objective using coded labels. The number of blue (senescent) cells in each photograph could then be determined in a blinded fashion. The SA-β-gal assay was performed in parallel with the DCF time-course experiments, using the same mixture of donor cells and seeding densities.
# [2] = system: intracellular ROS in normal newborn human dermal fibroblasts; assay: Dichlorofluorescein diacetate (DCF) assay of intracellular ROS, FACScan; type: cell-based; conditions: for DCF fluorescence (intracellular ROS) compared to diluent: 100 μM pTT / pCC, 40 μM TO / TOC1 / TOC2
# Method: Normal newborn human dermal fibroblasts were cultured from foreskin specimens into DMEM supplemented with 10% CS as described above. Due to the large number of cells needed for time course experiments, and to minimize donor variability, in dichlorofluorescein diacetate FACS experiments cells from three different donors were combined.
# Purified lyophilized oligonucleotides were obtained and prepared for cell treatment as described above. All treatments involved a single stimulation with T-oligo, after which cells were harvested at various times without medium changes or addition of more T-oligo. Treatment doses were 100 μM pTT and 40 μM TO except in dose-response experiments; these concentrations were determined in previous experiments to be optimal for measuring DNA damage responses using these T-oligos.^142,150,228
# Complementary and scrambled oligonucleotides were chosen for each T-oligo. pAA and pCC were used as controls for pTT, and the complementary 11-base pCTAACCCTAAC (TOC1, SEQ ID NO: 22) and a scrambled sequence pGATCGATCGAT (TOC2, SEQ ID NO: 23) were used as controls for the T-oligo TO.
# H2DCFDA stock solution (1 mg/ml) was thawed and diluted in Hanks' Balanced Salt Solution, 1× liquid without phenol red (GIBCO Invitrogen, Carlsbad, Calif.), to a working concentration of 100 μM immediately before use. H2DCFDA is converted by intracellular esterases to dichlorofiuorescein (DCF). When oxidized by intracellular ROS, it will fluoresce at 530 nm when excited by 480 nm light. […] All work involving DCF was conducted in minimal room light. Peaks on FACScan plots that shift to the right indicate greater fluorescence and increased ROS levels. For NADPH oxidase inhibitor studies using DPI,^237,239 the DPI stock solution was added directly to DCF treatment solution to achieve a final DPI treatment concentration of 50 μM.
# Hydrogen peroxide positive controls were used to rule out saturation of the DCF probe in the T-oligo dose response experiments. Fibroblasts were exposed to 1 mM, 5 mM and 10 mM H2O2 solutions in PBS for 15 minutes following DCF incubation for 30 minutes, harvested and analyzed as described above.
# The horseradish peroxidase assay data was analyzed by one-way ANOVA. DCF assay FACScan results were analyzed using Cellquest software (Becton-Dickinson, Calif.). All peak positions on x-axis of the fluorescence histogram plot were determined visually (using the software) and recorded as a number. Peak position values were then compared using one-way ANOVA.
# SOD2 protein = assay: Western blot analysis of antioxidant enzymes: SOD2 protein; type: cell-based, human
# Method: Cell lysates were harvested at various intervals after T-oligo treatment in harvest buffer containing 0.25 M Tris HCl (pH 7.5), 0.375 M NaCl, 2.5% sodium deoxycholate, 1% Triton X-100, 25 mM MgCl2, 0.1 mg/ml aprotinin (Sigma, St. Louis, Mo.) and 1 mM phenylmethyl sulfonyl flouride (PMSF) (Sigma). Samples were sheared through a fine needle syringe, sonicated, centrifuged and the supernatant was isolated. Total cellular protein concentrations were determined spectrophotometrically with the Bio-Rad protein assay (Bio-Rad Laboratories, Inc, Hercules, Calif.). Equal amounts of total protein from each sample (35-65 μg) were separated by 10-15% polyacrylamide gel electrophoresis, and transferred to nitrocellulose membranes. After transfer, gels were stained with Coomassie Blue (Sigma) to ascertain evenness of loading.
# Membranes were reacted with antibodies diluted in Tris-based buffer with nonfat milk powder as a blocking agent. […] Antibody binding was detected with electrochemical luminescence (ECL kit, NEN Life Science Products, Inc.) and exposure to XAR film (Eastman Kodak Co.).
# Northern and western films as well as stained membranes and pictures of ethidium bromide-stained gels were digitally scanned and analyzed by densitometry. […]
Substance,PI fluorescence (toxicity / nonviable cells) [1],"cells staining positive in the SA-β-gal assay (human dermal fibroblasts; 40 μM TO or 100 μM pTT, 24-72 hours of treatment)","SA-β-gal positive cells, result in words (human dermal fibroblasts)",DCF fluorescence (intracellular ROS) compared to diluent [2],"SOD2 protein maximal relative induction compared to diluent (SOD2 protein; 100 μM pTT, at 24 hours, three donors, mean±SEM)","maximum amount of DCF fluorescence, TO vs pTT ([2]; 40 μM TO compared to 100 μM pTT)","time measurable ROS stimulation starts ([2]; FIG. 14 donor cells, 100 μM pTT, 40 μM TO) [h]","time of measurable ROS stimulation ([2]; FIG. 16 representative time course, donor variability) [h]","ROS production (DCF fluorescence) relative to pTT at the same dose ([2]; within 72 hours, 25, 40 and 100 μM doses)","SOD2 protein level (SOD2 protein; 40 μM, within several hours, up to 168 hours)"
5′-phosphorylated thymidine dinucleotides [pTT],less than that induced by the positive control; also recorded: comparable to diluent treatment,Less than 10%,did not result in a significant number of SA-β-gal cells; also recorded: did not display S.A. β-gal activity,statistically significant increase in DCF fluorescence,31% (±20%),,,,,
"pGTTAGGGTTAG (5' {P}, sugars by position and backbone not given here) [TO]",less than that induced by the positive control; also recorded: comparable to diluent treatment,,did not display S.A. β-gal activity,statistically significant increase in DCF fluorescence,,greater than ROS stimulated by pTT-treated cells,36,≤ 36,up to 1.5 times,induced
